Results taken from patent US12343324B2, “Dihydromyricetin hot melt extrusion formulations and methods for forming them” (The Trustees of Princeton University, priority 2018, dated 2025).
Converted amounts (≈) assume the structure as drawn.

Assays:
[1] = Equilibrium solubility in fed state simulated intestinal fluid (FeSSIF); format: physicochemical; conditions: thermodynamic from solid, pH 5.0, 37° C., read-out: equilibrium solubility of crystalline DHM in FeSSIF
[2] = reference [31]; cited from earlier work
[3] = Equilibrium solubility in fasted state simulated intestinal fluid (FaSSIF); format: physicochemical; conditions: thermodynamic from solid, pH 6.5, 37° C., read-out: equilibrium solubility of crystalline DHM in FaSSIF

solubility thermodynamic [1]: ~140 µg/mL (≈ 437 µM)
solubility thermodynamic [3]: ~50 µg/mL (≈ 156 µM)
SMILES: O=C1c2c(O)cc(O)cc2O[C@H](c2cc(O)c(O)c(O)c2)[C@H]1O [DHM, dihydromyricetin]
oral bioavailability [2]: less than 5%
